Reference: patent US6465483B1, “Annelated dihydropyridines and the use thereof for preparing pharmaceutical preparations” (Boehringer Ingelheim GmbH, priority 1993, dated 2002)

What was measured:
RBL-2H3-cells = test: Antigen (DNP-BSA)-induced activation of sensitised RBL-2H3-cells, fluorometric cytoplasmic calcium measurement; format: cell-based, rat; details: 10 μM
Method: Individual RBL-2H3-cells (a tumour cell line related to the mast cells) adhering to glass slides are used.
The cultivation and attachment of the RBL-2H3-cells are carried out by the method described by HIDE and BEAVEN (1991). In order to sensitise the adhesive RBL-2H3-cells the cells are incubated for 2 hours at ambient temperature with a 1:2000 diluted commercial gammaglobulin E-solution against a dinitrophenol-bovine serum albumin complex (DNP-BSA-antigen). The cells are then washed. By the addition of 0.1 ml of DNP-BSA-solution (10 μg/ml) there is a massive immunological cell activation which is mediated by a cytoplasmic Ca^2+-overload. The fluorometric calcium measurement in the cytoplasm of individual adhering RBL-2H3-cells is carried out analogously to the method described by KUDO and OGURA (1986) for neuronal cells, which is also explained hereinbefore in this specification.
The comparison used in these investigations is (10 μM) chromoglycate which brings about an approximately 50% inhibition of the antigen-induced cell activation.

[1] = test system: unselective cation channels (UCC); test: Inhibition of Ca2+ entry through unselective cation channels after Thapsigargin stimulation, fura-2-charged RBL-hm 1 cells; format: cell-based, rat; details: Table 5, 0.1 μM Thapsigargin, test substance 10^−5 M
Method: For screening purposes, fura-2-charged adhesive RBL-hm 1 cells are stimulated with 0.1 μM Thapsigargin in a Ca^2+-free incubation medium. After 4 minutes, extracellular Ca^2+ is restored to a concentration of 1.5 mM and, using the fura-2-fluorescence, the excessive increase in the cytoplasmic Ca^2+-concentration caused by a massive transmembranal Ca^2+-entry through unselective cation channels is recorded.
The kinetics of the cytoplasmic Ca^2+-concentration is recorded continuously as a concentration/time curve after the cell activation stimulated by Thapsigargin (0.1 μM). The curves of two activated cell cultures are compared in the presence and absence of 10 μM test substance. The area under these curves (area under the curve=AUC) is integrated and recorded as a measurement of cell activation. The inhibitory potency of the UCC-blockers tested is determined using the following equation: [formula]
AUCinh area under the curve recorded in the presence of the stimulant plus 10 μM inhibitory test substance.
AUC control=area under the curve which is recorded only after the addition of the stimulant.
The uniform concentration of the test substances is 10^−5 mol or 10^−6 mol)

O=C(O)c1cc(=O)c2c(OCC(O)COc3cccc4oc(C(=O)O)cc(=O)c34)cccc2o1 [chromoglycate]
inhibition of the antigen-induced cell activation (RBL-2H3-cells): approximately 50%

COc1cc2c(cc1OC)C(C(C(=O)N(Cc1ccccc1)Cc1ccccc1)c1ccsc1)=NCC2 (racemic) [(R,S)-(3,4-Dihydro-6,7-dimethoxyisoquinolin-1-yl)-2-(3-thienyl)-N,N-dibenzyl-acetamide]
% H (10^−5 M), percentage inhibition of UCC after Thapsigargin stimulation [1]: 90.9%
